# Values of other authors, collected in article PMC8966651, “PKPD Modeling of the Inoculum Effect of Acinetobacter baumannii on Polymyxin B in vivo” (Frontiers in Pharmacology, 2022).
# Read-outs that look alike come from different tables or passages of the source.
# Assays:
# E. coli [1] = conditions: murine thigh infection model; ref de Araujo et al., 2011; cited from earlier work
# Excerpt: An innovative aspect of this study was the refinement of a PKPD model, based on the model developed after in vitro TK experiments conducted with A. baumannii and PMB ([Akrong et al., 2021]). […] The different growth behavior between in vitro and in vivo has been associated in literature ...
# E. coli [2] = conditions: cited from earlier work; for E. coli MICs at initial inoculum 10^7 CFU/ml compared to 10^5 CFU/ml: in vitro
# Excerpt: The clinical relevance of in vitro IE has been questioned in previous studies ([Maglio et al., 2004]; [Maglio et al., 2005]; [Fantin et al., 2019]).
# A. baumannii = conditions: initial inoculum of A. baumannii increased from 10^7 to 10^8 CFU/lung; ref Lin et al., 2018; cited from earlier work
# Excerpt: Yet the IE of A. baumannii on polymyxins in vivo remains to be investigated. […] But IE was only investigated on rare occasions in vivo, with antibiotics such as marbofloxacin ([Ferran et al., 2009]), piperacillin-tazobatam ([Harada et al., 2014]), ertapenem ([Maglio et al., 2005]), meropenem ([Mizunaga et al., 2005]) or colistin ([Fantin et al., 2019]) against various Gram-negative pathogens such as E. coli, K. pneumoniae ...
compound,measurement,setting,value
CCN1CCN(C(=O)N[C@@H](C(=O)N[C@@H]2C(=O)N3[C@@H]2SC(C)(C)[C@@H]3C(=O)O)c2ccccc2)C(=O)C1=O [piperacillin],maximum killing effect in vivo as compared to in vitro,E. coli [1],two times smaller
C[C@@H](O)[C@H]1C(=O)N2C(C(=O)O)=C(S[C@@H]3CN[C@H](C(=O)Nc4cccc(C(=O)O)c4)C3)[C@H](C)[C@H]12 [ertapenem],E. coli MICs at initial inoculum 10^7 CFU/ml compared to 10^5 CFU/ml,"E. coli [2]; ref Maglio et al., 2005",elevations of E. coli MICs
same,inoculum effect (IE) in vivo,"E. coli [2]; neutropenic mouse thigh infection model, ref Maglio et al., 2005",no IE was observed in vivo
CO/N=C(\C(=O)N[C@@H]1C(=O)N2C(C(=O)[O-])=C(C[N+]3(C)CCCC3)CS[C@H]12)c1csc(N)n1 [cefepime],E. coli MICs at initial inoculum 10^7 CFU/ml compared to 10^5 CFU/ml,"E. coli [2]; ref Maglio et al., 2004",elevations of E. coli MICs
same,inoculum effect (IE) in vivo,"E. coli [2]; neutropenic mouse thigh infection model, ref Maglio et al., 2004",no IE was observed in vivo
colistin,inoculum effect (IE) in vivo,"E. coli [2]; mice infected with E. coli, ref Fantin et al., 2019",observed an in vivo IE
same,efficacy of nebulized colistin with increasing inoculum,A. baumannii,decrease in the efficacy
